Test systems include EKVX NSCLC; HOP-62 NSCLC; IGROV1 ovarian; MOLT-4 leukemia; OVCAR-3 ovarian; OVCAR-5 ovarian; RXF 393 renal; SF-295 CNS; UACC-257 melanoma; UACC-62 melanoma.
Holding throughout (test): growth of human tumour cells (NCI), 48 h

Molecules are shown by their SMILES.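 Cells were grown in 96-well plates and exposed to each compound for 48 hours at five concentrations; endpoints were interpolated linearly between bracketing concentrations, or set to the highest concentration if not reached. The concentration for 50% growth inhibition is given as GI50. TGI is the concentration that stops growth completely.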

For `Cc1nc(-n2nc(-c3ccccc3)cc2-c2ccccc2)sc1C(/C=C/c1ccc([N+](=O)[O-])cc1)=N/NC(=O)c1ccncc1`, the TGI in the test on EKVX NSCLC is greater than 100 µM; in the test on HOP-62 NSCLC, 35 µM; in the test with IGROV1 ovarian, greater than 100 µM; in the test with MOLT-4 leukemia, 43.4 µM; in the test on OVCAR-3 ovarian, 42.5 µM; in the test on OVCAR-5 ovarian, greater than 100 µM. For the same compound, the TGI is 76.6 µM in the test on RXF 393 renal, greater than 100 µM in the test on SF-295 CNS, greater than 100 µM in the test on UACC-257 melanoma and 81.1 µM with UACC-62 melanoma.

In the case of `CC1CCC2N(C1)CC1C3(O)CC45OC6(O)C(O)CCC4(C)C6CCC5C3(O)CC(O)C1(O)C2(C)O` (stereo not given), the TGI in the test with EKVX NSCLC, in the test on HOP-62 NSCLC, with IGROV1 ovarian, in the test on MOLT-4 leukemia, in the test on OVCAR-3 ovarian and in the test on OVCAR-5 ovarian was greater than 100 µM throughout. Besides, the TGI in the test with RXF 393 renal, in the test with SF-295 CNS, in the test with UACC-257 melanoma and in the test on UACC-62 melanoma was greater than 100 µM throughout.

For `CCN(CC)CCN(C(=O)C(C)(C)C)c1ccccc1N`, the TGI with EKVX NSCLC, with HOP-62 NSCLC, with IGROV1 ovarian, with MOLT-4 leukemia, with OVCAR-3 ovarian and in the test on OVCAR-5 ovarian was greater than 100 µM in each case. Moreover, the TGI in the test with RXF 393 renal, with SF-295 CNS, in the test on UACC-257 melanoma and in the test with UACC-62 melanoma was greater than 100 µM throughout.

Take `COc1cnc2cc(C(=O)O)c3ccccc3c2c1`: the TGI in the test on EKVX NSCLC, in the test with HOP-62 NSCLC, with IGROV1 ovarian, in the test with MOLT-4 leukemia, in the test on OVCAR-3 ovarian and in the test with OVCAR-5 ovarian was greater than 100 µM each time. For the same compound, the TGI in the test with RXF 393 renal, with SF-295 CNS, in the test on UACC-257 melanoma and in the test on UACC-62 melanoma was greater than 100 µM in each case.

Turning to `CC1(C)CC[C@]2(C(N)=O)CC[C@]3(C)C(=CC[C@@H]4[C@@]5(C)C/C(=C/c6ccncc6)C(=O)C(C)(C)[C@@H]5CC[C@]43C)[C@@H]2C1`, the GI50 in the test on EKVX NSCLC is 2.44 µM; in the test on HOP-62 NSCLC it was 2.01 µM; in the test on IGROV1 ovarian it was 2.29 µM; with MOLT-4 leukemia it was 2 µM; with OVCAR-3 ovarian, 1.87 µM; in the test with OVCAR-5 ovarian it was 1.61 µM. Besides, the GI50 with RXF 393 renal is 1.59 µM; in the test on SF-295 CNS it was 1.67 µM; in the test with UACC-257 melanoma, 2.32 µM; in the test with UACC-62 melanoma, 1.61 µM. For the same compound, the TGI turned out to be 9.46 µM in the test with EKVX NSCLC; 4.71 µM in the test on HOP-62 NSCLC; 6.6 µM with IGROV1 ovarian; 6.02 µM with MOLT-4 leukemia; 3.45 µM with OVCAR-3 ovarian; 3.16 µM in the test on OVCAR-5 ovarian. The TGI in the test with RXF 393 renal amounted to 3.05 µM; in the test on SF-295 CNS, 3.42 µM; in the test with UACC-257 melanoma, 6.68 µM; in the test with UACC-62 melanoma it was 3.34 µM.

In the case of `C[N+](C)(C)CC1CCCC(C[N+](C)(C)C)C1O` (stereo not given), the TGI in the test on EKVX NSCLC, in the test on HOP-62 NSCLC, in the test on IGROV1 ovarian, in the test with MOLT-4 leukemia, in the test on OVCAR-3 ovarian and with OVCAR-5 ovarian was greater than 100 µM in each case. Also, the TGI in the test on RXF 393 renal, with SF-295 CNS, in the test with UACC-257 melanoma and with UACC-62 melanoma was greater than 100 µM throughout.

In the case of `COC1(OC)c2no[n+]([O-])c2C(OC)(OC)c2c1no[n+]2[O-]`, the TGI in the test on EKVX NSCLC was 41.6 µM; with HOP-62 NSCLC it was 35.8 µM; in the test on IGROV1 ovarian, 51 µM; in the test with MOLT-4 leukemia, greater than 100 µM; in the test with OVCAR-3 ovarian it was 28.3 µM; with OVCAR-5 ovarian, 43.6 µM. Further, the TGI in the test with RXF 393 renal was found to be 58.7 µM; with SF-295 CNS, 80 µM; with UACC-257 melanoma it was 25 µM; in the test with UACC-62 melanoma it was 24.3 µM.

`Cc1cc(Cl)cc2c1NC(=O)C2=O` (tested in a mixture with another compound): the TGI is greater than 100 µM in the test with EKVX NSCLC; greater than 100 µM with HOP-62 NSCLC; greater than 100 µM in the test on IGROV1 ovarian; 54.7 µM in the test with MOLT-4 leukemia; greater than 100 µM in the test with OVCAR-3 ovarian; greater than 100 µM in the test with OVCAR-5 ovarian. In addition, the TGI is greater than 100 µM in the test with RXF 393 renal, greater than 100 µM with SF-295 CNS, 51.1 µM in the test with UACC-257 melanoma and 41.6 µM with UACC-62 melanoma.

For the compound `COc1ccc(CCc2cc(OC)c(OC)c(OC)c2)cc1`, the TGI in the test with EKVX NSCLC is 70 µM; in the test on HOP-62 NSCLC, 14 µM; in the test on IGROV1 ovarian, greater than 100 µM; in the test with MOLT-4 leukemia, 6.26 µM; in the test with OVCAR-3 ovarian it was 0.523 µM; with OVCAR-5 ovarian it was greater than 100 µM. The TGI is 0.057 µM with RXF 393 renal, 1.46 µM in the test with SF-295 CNS, 47.7 µM with UACC-257 melanoma and greater than 100 µM in the test with UACC-62 melanoma.

For the compound `Cc1ccc(NC(=O)CC(=O)N2N=C(N(CCC#N)c3cccc(C)c3)CC2c2ccccc2)cc1` (stereo not given), the TGI with EKVX NSCLC, in the test on HOP-62 NSCLC, in the test on IGROV1 ovarian, in the test with MOLT-4 leukemia, with OVCAR-3 ovarian and in the test with OVCAR-5 ovarian was greater than 100 µM each time. In addition, the TGI in the test with RXF 393 renal, with SF-295 CNS, in the test with UACC-257 melanoma and in the test on UACC-62 melanoma was greater than 100 µM each time.

Turning to `Oc1ccc(Cl)cc1Cc1cc(Cl)ccc1O`, the GI50 in the test on EKVX NSCLC was 2.65 µM; with HOP-62 NSCLC, 2.39 µM; with IGROV1 ovarian, 3.34 µM; in the test with MOLT-4 leukemia, 2.86 µM; with OVCAR-3 ovarian it was 2.63 µM; in the test with OVCAR-5 ovarian, 4.79 µM. For the same compound, the GI50 in the test with RXF 393 renal was 2.38 µM; in the test with SF-295 CNS, 2.27 µM; with UACC-257 melanoma, 1.87 µM; in the test on UACC-62 melanoma, 2.77 µM. In addition, the TGI in the test with EKVX NSCLC came out at 8.84 µM; in the test on HOP-62 NSCLC, 7.56 µM; in the test with IGROV1 ovarian, 12.5 µM; in the test with MOLT-4 leukemia, 8.83 µM; in the test on OVCAR-3 ovarian it was 8.35 µM; in the test with OVCAR-5 ovarian, 19.6 µM. For the same compound, the TGI in the test with RXF 393 renal worked out at 8.04 µM; in the test on SF-295 CNS, 6.09 µM; in the test with UACC-257 melanoma, 5.39 µM; in the test with UACC-62 melanoma it was 10.5 µM.

These data come from PubChem BioAssay (NCI).
